Experimental data reported in ChEMBL document CHEMBL1201862, “PubChem BioAssay data set” (2004).
Activity calls are given as the source filed them.

How the values were obtained:
[1] = biological target: T1, Apoptotic protease-activating factor 1 (Homo sapiens, UniProt O14727); assay type: functional
T1 sequence (O14727 whole entry): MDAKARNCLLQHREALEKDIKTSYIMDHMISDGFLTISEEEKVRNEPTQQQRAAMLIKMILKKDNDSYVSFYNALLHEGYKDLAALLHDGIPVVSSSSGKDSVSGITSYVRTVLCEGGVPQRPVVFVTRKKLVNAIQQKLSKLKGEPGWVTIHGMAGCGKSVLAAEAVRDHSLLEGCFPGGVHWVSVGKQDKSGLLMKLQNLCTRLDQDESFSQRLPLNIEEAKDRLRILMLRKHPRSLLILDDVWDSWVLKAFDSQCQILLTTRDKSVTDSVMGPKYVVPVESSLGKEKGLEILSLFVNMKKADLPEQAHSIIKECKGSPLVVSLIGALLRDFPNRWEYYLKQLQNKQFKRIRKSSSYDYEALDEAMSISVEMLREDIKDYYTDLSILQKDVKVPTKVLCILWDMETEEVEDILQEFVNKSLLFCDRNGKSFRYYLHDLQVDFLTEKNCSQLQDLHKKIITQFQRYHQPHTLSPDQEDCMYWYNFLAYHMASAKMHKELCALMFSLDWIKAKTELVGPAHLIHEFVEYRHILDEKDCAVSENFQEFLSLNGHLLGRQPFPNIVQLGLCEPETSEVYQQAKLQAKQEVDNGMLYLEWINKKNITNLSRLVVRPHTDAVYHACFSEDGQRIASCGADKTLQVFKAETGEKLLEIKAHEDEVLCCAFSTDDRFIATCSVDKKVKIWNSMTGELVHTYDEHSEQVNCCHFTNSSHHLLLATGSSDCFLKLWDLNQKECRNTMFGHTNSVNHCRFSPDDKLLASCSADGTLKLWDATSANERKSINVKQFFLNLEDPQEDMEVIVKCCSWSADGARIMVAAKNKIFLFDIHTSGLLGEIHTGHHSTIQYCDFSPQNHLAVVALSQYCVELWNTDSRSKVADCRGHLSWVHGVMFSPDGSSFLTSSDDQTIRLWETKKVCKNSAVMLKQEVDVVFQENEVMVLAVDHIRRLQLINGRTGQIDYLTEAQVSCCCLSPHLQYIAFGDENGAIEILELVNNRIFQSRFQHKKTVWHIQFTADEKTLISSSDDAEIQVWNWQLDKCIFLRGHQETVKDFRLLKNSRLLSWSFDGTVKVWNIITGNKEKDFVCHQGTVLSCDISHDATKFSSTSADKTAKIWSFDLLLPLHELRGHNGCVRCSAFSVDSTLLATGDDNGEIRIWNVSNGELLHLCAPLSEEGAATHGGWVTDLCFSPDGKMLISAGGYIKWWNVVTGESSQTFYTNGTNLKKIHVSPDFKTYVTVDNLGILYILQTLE

[2] = biological target: T2, Replicative DNA helicase DnaB (Mycobacterium tuberculosis, UniProt P9WMR3); assay: DnaB intein splicing inhibitors, dose response, biochemical, cell-free fluorescence (AID 449749); assay type: functional
T2 sequence (P9WMR3 whole entry): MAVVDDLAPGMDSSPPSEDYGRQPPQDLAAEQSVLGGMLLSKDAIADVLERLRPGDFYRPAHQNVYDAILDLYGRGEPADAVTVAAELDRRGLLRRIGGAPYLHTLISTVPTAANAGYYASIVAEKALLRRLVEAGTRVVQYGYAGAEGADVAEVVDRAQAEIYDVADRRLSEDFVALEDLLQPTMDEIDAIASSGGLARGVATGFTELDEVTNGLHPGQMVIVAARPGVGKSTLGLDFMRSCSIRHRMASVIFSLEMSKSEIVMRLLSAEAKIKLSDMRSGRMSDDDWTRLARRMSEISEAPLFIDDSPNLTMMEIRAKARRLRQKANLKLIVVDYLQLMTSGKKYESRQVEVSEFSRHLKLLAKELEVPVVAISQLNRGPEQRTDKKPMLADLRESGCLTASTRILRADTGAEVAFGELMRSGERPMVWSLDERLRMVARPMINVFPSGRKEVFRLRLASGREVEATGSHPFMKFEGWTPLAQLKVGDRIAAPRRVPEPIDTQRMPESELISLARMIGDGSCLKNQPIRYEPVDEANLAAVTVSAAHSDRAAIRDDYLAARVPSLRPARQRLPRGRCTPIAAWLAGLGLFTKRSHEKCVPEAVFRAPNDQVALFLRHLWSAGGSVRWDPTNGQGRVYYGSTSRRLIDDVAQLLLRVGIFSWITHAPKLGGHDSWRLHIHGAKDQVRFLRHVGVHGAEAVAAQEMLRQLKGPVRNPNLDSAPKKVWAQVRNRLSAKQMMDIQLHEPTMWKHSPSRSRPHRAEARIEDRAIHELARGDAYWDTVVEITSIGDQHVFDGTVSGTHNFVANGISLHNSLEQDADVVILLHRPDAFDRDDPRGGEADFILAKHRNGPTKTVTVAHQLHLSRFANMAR

SMILES | IC50 [1] | AC50 [2]
O=C(NC1(O)C(=O)c2ccccc2C1=O)c1c(Cl)cccc1Cl | 2.7 µM (active) | 17.3 µM (active)
CCN(c1ccccc1)c1cc2ccccc2c(=O)[nH]1 | 18.7 µM (active) | > 380 µM (inactive)
Cn1c(=O)[nH]c(=O)c2c1nc([N+](=O)[O-])n2Cc1ccccc1 | – | 26.2 µM (active)
O=C(NC1(O)C(=O)c2ccccc2C1=O)c1ccc(C(F)(F)F)cc1 | 2.97 µM (active) | –
